Where two headings read alike, the source gives them in different places.
What was measured:
[1] = target: T1, α-7 nicotinic acetylcholine receptor channel expressed in HEK 293 cells (Rattus norvegicus, UniProt Q05941); assay: Ca2+-sensitive fluorescence-based FLIPR assay, α7 nicotinic ACh receptor channel function (agonist); format: cell-based
T1 construct: expressed in transfected cells
In short: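 Potency and efficacy derived from kinetic FLIPR Ca²⁺-flux fluorescence, recorded 3 min after compound addition in Hanks buffer following a 10 s baseline.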

[2] = FLIPR α7 activity rating (EC50, nM), Table 1, HEK 293 cells, agonist Ca2+ flux
[3] = FLIPR α7 activity rating (EC50, nM), Table Ib, HEK 293 cells, agonist Ca2+ flux
[4] = FLIPR α7 (EC50, nM), Table Ib, HEK 293 cells, agonist Ca2+ flux

T1 sequence (Q05941 23-502): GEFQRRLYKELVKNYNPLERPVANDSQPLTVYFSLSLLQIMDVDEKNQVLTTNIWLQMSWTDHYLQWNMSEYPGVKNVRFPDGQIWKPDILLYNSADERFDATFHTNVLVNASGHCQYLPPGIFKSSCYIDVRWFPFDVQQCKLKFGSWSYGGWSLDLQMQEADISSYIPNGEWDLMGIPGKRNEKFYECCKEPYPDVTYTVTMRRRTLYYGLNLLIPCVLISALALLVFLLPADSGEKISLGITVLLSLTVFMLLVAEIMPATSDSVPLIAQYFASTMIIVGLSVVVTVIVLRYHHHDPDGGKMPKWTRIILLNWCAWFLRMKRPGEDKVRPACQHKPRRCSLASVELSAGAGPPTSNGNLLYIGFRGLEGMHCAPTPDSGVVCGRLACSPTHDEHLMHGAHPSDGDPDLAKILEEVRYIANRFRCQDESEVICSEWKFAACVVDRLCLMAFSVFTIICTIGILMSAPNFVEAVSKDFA

Row | Structure (SMILES) | EC50 [1, 3] | other results
1 | c1ccc(-c2cnc(NC3=NCC4(CN5CCC4CC5)O3)s2)cc1 (stereo not drawn) [Example 4, N-(5-Phenylthiazol-2-yl)-4H-1′-azaspiro[oxazole-5,3′-bicyclo[2.2.2]octan]-2-amine] | – | melting point: 187 to 189 °C; EC50 [1, 2]: < 100 nM
2 | c1ccc2[nH]c(NC3=NCC4(CN5CCC4CC5)O3)nc2c1 (stereo not drawn) [Example 8, N-(1H-benzo[d]imidazol-2-yl)-4H-1′-azaspiro[oxazole-5,3′-bicyclo[2.2.2]octan]-2-amine] | – | melting point: 255 °C (dec.); EC50 [1, 2]: 100 to 1000 nM
3 | FC(F)Oc1ccc2nc(NC3=NC[C@@]4(CN5CCC4CC5)O3)sc2c1 [Example 22, (R)—N-(6-(Difluoromethoxy)benzo[d]thiazol-2-yl)-4H-1′-azaspiro[oxazole-5,3′-bicyclo[2.2.2]octan]-2-amine] | – | melting point: 223 to 225 °C; EC50 [1, 2]: 100 to 1000 nM
4 | FC(F)Oc1cc(NC2=NC[C@@]3(CN4CCC3CC4)O2)ncn1 [Example 144] | – | melting point: 185 to 190 °C; EC50 [1, 2]: < 100 nM
5 | Fc1cc2cnc(NC3=NC[C@@]4(CN5CCC4CC5)O3)cc2cc1F [Example 319, (R)—N-(6,7-Difluoroisoquinolin-3-yl)-4H-1′-azaspiro[oxazole-5,3′-bicyclo[2.2.2]octan]-2-amine] | < 100 nM | –
6 | Fc1ccc(F)c2cc(NC3=NC[C@@]4(CN5CCC4CC5)O3)ncc12 [Example 320, (R)—N-(5,8-Difluoroisoquinolin-3-yl)-4H-1′-azaspiro[oxazole-5,3′-bicyclo[2.2.2]octan]-2-amine] | < 100 nM | –
7 | Fc1ccc2cnc(NC3=NC[C@@]4(CN5CCC4CC5)O3)nc2c1 [Example 321, (R)—N-(7-Fluoroquinazolin-2-yl)-4H-1′-azaspiro[oxazole-5,3′-bicyclo[2.2.2]octan]-2-amine] | < 100 nM | –
8 | Clc1cccc2nc(NC3=NC[C@@]4(CN5CCC4CC5)O3)ncc12 [Example 322, (R)—N-(5-Chloroquinazolin-2-yl)-4H-1′-azaspiro[oxazole-5,3′-bicyclo[2.2.2]octan]-2-amine] | < 100 nM | –
9 | Fc1cccc2nc(NC3=NC[C@@]4(CN5CCC4CC5)O3)ncc12 [Example 323, (R)—N-(5-Fluoroquinazolin-2-yl)-4H-1′-azaspiro[oxazole-5,3′-bicyclo[2.2.2]octan]-2-amine] | < 100 nM | –
10 | Cc1nc(NC2=NC[C@@]3(CN4CCC3CC4)O2)nc2cc(F)ccc12 [Example 324, (R)—N-(7-Fluoro-4-methylquinazolin-2-yl)-4H-1′-azaspiro[oxazole-5,3′-bicyclo[2.2.2]octan]-2-amine] | < 100 nM | –
11 | Cc1nc(NC2=NC[C@@]3(CN4CCC3CC4)O2)cc2cc(F)ccc12 [Example 325, (R)—N-(6-Fluoro-1-methylisoquinolin-3-yl)-4H-1′-azaspiro[oxazole-5,3′-bicyclo[2.2.2]octan]-2-amine] | 100 to 1000 nM | EC50 [1, 4]: 139 nM
12 | Cc1nc(NC2=NC[C@@]3(CN4CCC3CC4)O2)cc2cc(Cl)ccc12 [Example 326, (R)—N-(6-Chloro-1-methylisoquinolin-3-yl)-4H-1′-azaspiro[oxazole-5,3′-bicyclo[2.2.2]octan]-2-amine] | 100 to 1000 nM | –
13 | Cc1nc(NC2=NC[C@@]3(CN4CCC3CC4)O2)cc2ccc(F)cc12 [Example 327, (R)—N-(7-Fluoro-1-methylisoquinolin-3-yl)-4H-1′-azaspiro[oxazole-5,3′-bicyclo[2.2.2]octan]-2-amine] | 100 to 1000 nM | –
14 | Cc1nc(NC2=NC[C@@]3(CN4CCC3CC4)O2)cc2c(F)cc(F)cc12 [Example 328, (R)—N-(5,7-Difluoro-1-methylisoquinolin-3-yl)-4H-1′-azaspiro[oxazole-5,3′-bicyclo[2.2.2]octan]-2-amine] | 100 to 1000 nM | –
15 | CSc1ccc(-c2cc(NC3=NC[C@@]4(CN5CCC4CC5)O3)ncn2)cn1 [Example 329, (R)—N-(6-(6-(Methylthio)pyridin-3-yl)pyrimidin-4-yl)-4H-1′-azaspiro[oxazole-5,3′-bicyclo[2.2.2]octan]-2-amine] | < 100 nM | –
16 | Fc1ncccc1-c1cc(NC2=NC[C@@]3(CN4CCC3CC4)O2)ncn1 [Example 330, (R)—N-(6-(2-Fluoropyridin-3-yl)pyrimidin-4-yl)-4H-1′-azaspiro[oxazole-5,3′-bicyclo[2.2.2]octan]-2-amine] | < 100 nM | –
17 | Fc1ccc(-c2cc(NC3=NC[C@@]4(CN5CCC4CC5)O3)ncn2)cn1 [Example 331, (R)—N-(6-(6-Fluoropyridin-3-yl)pyrimidin-4-yl)-4H-1′-azaspiro[oxazole-5,3′-bicyclo[2.2.2]octan]-2-amine] | < 100 nM | –
18 | Fc1cncc(-c2cc(NC3=NC[C@@]4(CN5CCC4CC5)O3)ncn2)c1 [Example 332, (R)—N-(6-(5-Fluoropyridin-3-yl)pyrimidin-4-yl)-4H-1′-azaspiro[oxazole-5,3′-bicyclo[2.2.2]octan]-2-amine] | < 100 nM | –
19 | Cn1nccc1-c1cc(NC2=NC[C@@]3(CN4CCC3CC4)O2)ncn1 [Example 333, (R)—N-(6-(1-Methyl-1H-pyrazol-5-yl)pyrimidin-4-yl)-4H-1′-azaspiro[oxazole-5,3′-bicyclo[2.2.2]octan]-2-amine] | < 100 nM | –

Row | Structure (SMILES) | EC50 [1, 3] | other results
20 | c1cnc(-c2cc(NC3=NC[C@@]4(CN5CCC4CC5)O3)ncn2)cn1 [Example 334, (R)—N-(6-(Pyrazin-2-yl)pyrimidin-4-yl)-4H-1′-azaspiro[oxazole-5,3′-bicyclo[2.2.2]octan]-2-amine] | < 100 nM | –
21 | Cc1cc2cnc(NC3=NC[C@@]4(CN5CCC4CC5)O3)cc2cc1C [Example 335, (2R)—N-(6,7-Dimethyl-3-isoquinolinyl)-4′H-spiro[4-azabicyclo[2.2.2]octane-2,5′-[1,3]oxazol]-2′-amine] | 100 to 1000 nM | EC50 [1, 4]: 104 nM
22 | Cc1ccc2nc(NC3=NC[C@@]4(CN5CCC4CC5)O3)oc2c1 [Example 336, (2R)—N-(6-Methyl-1,3-benzoxazol-2-yl)-4′H-spiro[4-azabicyclo[2.2.2]octane-2,5′-[1,3]oxazol]-2′-amine] | < 100 nM | –
23 | COc1ccc2nc(NC3=NC[C@@]4(CN5CCC4CC5)O3)oc2c1 [Example 337, (2R)—N-(6-Methoxy-1,3-benzoxazol-2-yl)-4′H-spiro[4-azabicyclo[2.2.2]octane-2,5′-[1,3]oxazol]-2′-amine] | 100 to 1000 nM | –
24 | Clc1cccc2cnc(NC3=NC[C@@]4(CN5CCC4CC5)O3)cc12 [Example 338A, (R)—N-(5-chloroisoquinolin-3-yl)-4H-1′-azaspiro[oxazole-5,3′-bicyclo[2.2.2]octan]-2-amine] | < 100 nM | –
25 | Clc1ccc2cc(NC3=NC[C@@]4(CN5CCC4CC5)O3)ncc2c1 [Example 338B, (R)—N-(7-chloroisoquinolin-3-yl)-4H-1′-azaspiro[oxazole-5,3′-bicyclo[2.2.2]octan]-2-amine] | < 100 nM | –
26 | Clc1cnc2nc(NC3=NC[C@@]4(CN5CCC4CC5)O3)sc2c1 [Example 339, (R)—N-(6-Chlorothiazolo[4,5-b]pyridin-2-yl)-4H-1′-azaspiro[oxazole-5,3′-bicyclo[2.2.2]octan]-2-amine] | < 100 nM | –
27 | Fc1ccc2nc(NC3=NC[C@@]4(CN5CCC4CC5)O3)sc2n1 [Example 340, (R)—N-(5-Fluorothiazolo[5,4-b]pyridin-2-yl)-4H-1′-azaspiro[oxazole-5,3′-bicyclo[2.2.2]octan]-2-amine] | < 100 nM | –
28 | Cc1cnc2nc(NC3=NC[C@@]4(CN5CCC4CC5)O3)sc2n1 [Example 341, (R)—N-(6-methylthiazolo[5,4-b]pyrazin-2-yl)-4H-1′-azaspiro[oxazole-5,3′-bicyclo[2.2.2]octan]-2-amine] | < 100 nM | –
29 | COc1cc2cnc(NC3=NC[C@@]4(CN5CCC4CC5)O3)cc2cc1OC [Example 342, (R)—N-(6,7-dimethoxyisoquinolin-3-yl)-4H-1′-azaspiro[oxazole-5,3′-bicyclo[2.2.2]octan]-2-amine] | 1000 to 100000 nM | EC50 [1]: 1600 nM
30 | c1nc(NC2=NC[C@@]3(CN4CCC3CC4)O2)cc2c1CCCC2 [Example 343, (R)—N-(5,6,7,8-Tetrahydroisoquinolin-3-yl)-4H-1′-azaspiro[oxazole-5,3′-bicyclo[2.2.2]octan]-2-amine] | < 100 nM | –
31 | COc1cc2cnc(NC3=NC[C@@]4(CN5CCC4CC5)O3)cc2cc1Cl [Example 344, (R)—N-(6-Chloro-7-methoxyisoquinolin-3-yl)-4H-1′-azaspiro[oxazole-5,3′-bicyclo[2.2.2]octan]-2-amine] | < 100 nM | –
32 | Fc1cccc2cnc(NC3=NC[C@@]4(CN5CCC4CC5)O3)cc12 [Example 345, (R)—N-(5-Fluoroisoquinolin-3-yl)-4H-1′-azaspiro[oxazole-5,3′-bicyclo[2.2.2]octan]-2-amine] | < 100 nM | –
33 | Fc1ccc(Br)c2cnc(NC3=NC[C@@]4(CN5CCC4CC5)O3)cc12 [Example 346, (R)—N-(8-Bromo-5-fluoroisoquinolin-3-yl)-4H-1′-azaspiro[oxazole-5,3′-bicyclo[2.2.2]octan]-2-amine] | 100 to 1000 nM | EC50 [1, 4]: 310 nM
34 | c1cn(-c2cc(NC3=NC[C@@]4(CN5CCC4CC5)O3)ncn2)cn1 [Example 347, (R)—N-(6-(1H-imidazol-1-yl)pyrimidin-4-yl)-4H-1′-azaspiro[oxazole-5,3′-bicyclo[2.2.2]octan]-2-amine] | < 100 nM | –
35 | Cc1cn(-c2cc(NC3=NC[C@@]4(CN5CCC4CC5)O3)ncn2)cn1 [Example 348, (R)—N-(6-(4-Methyl-1H-imidazol-1-yl)pyrimidin-4-yl)-4H-1′-azaspiro[oxazole-5,3′-bicyclo[2.2.2]octan]-2-amine] | < 100 nM | –
36 | Clc1cn(-c2cc(NC3=NC[C@@]4(CN5CCC4CC5)O3)ncn2)cn1 [Example 349, (R)—N-(6-(4-Chloro-1H-imidazol-1-yl)pyrimidin-4-yl)-4H-1′-azaspiro[oxazole-5,3′-bicyclo[2.2.2]octan]-2-amine] | < 100 nM | –
37 | c1nc(NC2=NC[C@@]3(CN4CCC3CC4)O2)cc(-n2cncn2)n1 [Example 351, (R)—N-(6-(1H-1,2,4-triazol-1-yl)pyrimidin-4-yl)-4H-1′-azaspiro[oxazole-5,3′-bicyclo[2.2.2]octan]-2-amine] | < 100 nM | –
